Here are results for twelve compounds from PubChem BioAssay AID406 (SGCOxCompounds, 2006).

One may read the inhibition as how much of the control response was suppressed.

For the experiment, the target named is mRNA-capping enzyme (Homo sapiens) (UniProt O60942). The experiment can be described thus: RNGTT phosphatase activity inhibitors, biochemical, DiFMUP fluorescence, recombinant (AID 406). The settings on record: at 50 µM, active compounds read high.
Sequence of mRNA-capping enzyme (Homo sapiens) (O60942 whole entry, looked up): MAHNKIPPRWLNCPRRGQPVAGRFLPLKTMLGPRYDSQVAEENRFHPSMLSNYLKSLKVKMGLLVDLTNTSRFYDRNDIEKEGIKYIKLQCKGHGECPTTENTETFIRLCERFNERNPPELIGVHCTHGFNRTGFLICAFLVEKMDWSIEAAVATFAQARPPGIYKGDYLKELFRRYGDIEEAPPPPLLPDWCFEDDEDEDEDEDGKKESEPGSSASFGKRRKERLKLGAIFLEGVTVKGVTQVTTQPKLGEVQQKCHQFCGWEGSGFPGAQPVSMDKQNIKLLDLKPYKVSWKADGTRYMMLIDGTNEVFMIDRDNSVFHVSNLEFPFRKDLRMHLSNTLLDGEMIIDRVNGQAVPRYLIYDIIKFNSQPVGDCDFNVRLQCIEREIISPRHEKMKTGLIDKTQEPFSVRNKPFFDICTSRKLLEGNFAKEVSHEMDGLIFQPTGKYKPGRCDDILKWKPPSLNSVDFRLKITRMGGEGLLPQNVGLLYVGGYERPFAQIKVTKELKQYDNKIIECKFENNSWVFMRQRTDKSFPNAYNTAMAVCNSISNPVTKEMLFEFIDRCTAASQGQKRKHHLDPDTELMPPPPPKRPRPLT
As to `OO.OO.[K+].[O]=[V].c1ccc(-c2ccccn2)nc1`, the inhibition was 41%.
As to `O=C1NC(=S)NC(=O)C1=C/C=C/c1ccco1`, the inhibition was 22%.
With `O=C1NC(=S)S/C1=C\C=C\c1ccc([N+](=O)[O-])o1` the figure was 60%.
With `O=C([O-])c1ccccn1.OO.OO.[K+].[K+].[O]=[V]` the figure was 36%; with `CC(=O)c1ccc2c(c1)C1C=CCC1C(C(=O)O)N2` (configuration not stated), 41%; with `CC(C)(c1ccc(NS(=O)(=O)C(F)(F)F)cc1)c1ccc(C(C)(C)c2ccc(NS(=O)(=O)C(F)(F)F)cc2)cc1`, 37%.
On to `c1ccc([C@H]2CN3CCSC3=N2)cc1`, for which the inhibition is 29%.
On to `NC1=NC(=O)/C(=C/C=C/c2ccc([N+](=O)[O-])o2)S1`, for which the inhibition is 33%.
For `CN(N=O)c1ccc(O)c(O)c1`, the inhibition is 33%.
For `O=C(O)c1ccc([O-])cn1.OO.OO.[K+].[K+].[O]=[V]`, the inhibition was 47%.
In the case of `OO.OO.[K+].[O]=[V].c1cnc2c(c1)ccc1cccnc12` it was 22%; in that of `O=C(O)c1ccc(O)cn1.OO.[O]=[V]`, 51%.
